19 molecules from patent EP0335164A2, “Ester derivatives of neopentanol, process for their preparation and their use as medicines” (Merckle GmbH, priority 1988, dated 1989) can be followed below.

Marks after values point to notes of the source that are not given here.

In one assay the test system is Pfotenoedem. Briefly: Rat paw oedema test after oral administration (anti-inflammatory effect). It counts as in vivo, Ratte. An excerpt: (§1) Die entzündungshemmende Wirkung wurde mit ausgewählten Verbindungen jedes Estertyps im Vergleich zum jeweiligen Standard im konventionellen Rattenpfotenoedemtest nach oraler Applikation untersucht. Die Ergebnisse sind in Tab. 3 zusammengefaßt. Weiterhin wurde mit einigen Verbindungen die entzündungshemmende Aktivität nach dermaler Applikation am Kaolin-induzierten Pfotenoedem der Ratte untersucht. Für den Test wurden die Substanzen in einer Mischung aus Ethanol/Aceton/Dimethylacetamid gelöst und im konstanten Volumen 30 Min. vor und 150 Min. nach Injektion von Kaolin (0,1 ml 10%-ige Suspension in Wasser) appliziert. Das Pfotenvolumen wurde 2, 4 und 6 Stunden nach Kaolininjektion gemessen. Die Ergebnisse sind in Tabelle 4 zusammengefaßt.

Assay [1] concerns Kaolin-induziertes Pfotenoedem. As to the kind of experiment: Kaolin-induced rat paw oedema after dermal administration. It counts as in vivo, Ratte. As to conditions: 10 mg/kg standard acid, esters 12.3-13.2 mg/kg equivalent to 10 mg/kg acid, applied 30 min before and 150 min after kaolin; for % Hemmung 2h: 2 h after kaolin injection; for % Hemmung 4h: 4 h after kaolin injection; for % Hemmung 6h: 6 h after kaolin injection.
From the text: as §1

Regarding `CC(C(=O)O)c1ccc(C(=O)c2cccs2)cc1` (centres unmarked) [Suprofen, 2-[4-(2-Thenoyl)phenyl]-propionsäure, reference compound], in the assay on Pfotenoedem (50 mg/kg), the Hemmeffekt % worked out at 20%.
`CC(C(=O)O)c1cccc(C(=O)c2ccccc2)c1` (centres unmarked) [Ketoprofen, 2-(3-Benzoylphenyl)-propionsäure, reference compound]: the Hemmeffekt % with Pfotenoedem (38 mg/kg) is reported as 44%.
`CC(C)Cc1ccc(C(C)C(=O)OCC(C)(C)CO)cc1` (centres unmarked) [Beispiel 11] came in with a Hemmeffekt % in the assay on Pfotenoedem (50 mg/kg) of 47%.
Consider `CC(C)(C)COC(=O)Cc1cn(-c2ccccc2)nc1-c1ccc(Cl)cc1` [Beispiel 3, Lonazolacneopentylester], for which, in assay [1], the “% Hemmung 2h” value is 18.2* %, the “% Hemmung 4h” value is listed as 31.6*** % and the “% Hemmung 6h” value was 34.3*** %.
Molecule `CC(C(=O)OCC(C)(C)C)c1ccc(-c2ccccc2)c(F)c1` (centres unmarked) [Beispiel 14] showed a Hemmeffekt % with Pfotenoedem (1 mg/kg) of 35%.
With `O=C(O)c1ccccc1Nc1cccc(C(F)(F)F)c1` [Flufenaminsäure, N-(α,α,α-Trifluor-m-tolyl)anthranilsäure, reference compound], the Hemmeffekt % in the assay with Pfotenoedem (50 mg/kg) is listed as 33%. For the same molecule, in assay [1], the “% Hemmung 2h” value is on record as 0%, the “% Hemmung 4h” value is 19.4** % and the “% Hemmung 6h” value is 23.2** %.
As for `CC(C)Cc1ccc(C(C)C(=O)O)cc1` (centres unmarked) [Ibuprofen, 2-(4-Isobutylphenyl)-propionsäure, reference compound], the Hemmeffekt % with Pfotenoedem (50 mg/kg) turned out to be 35%.
Same read-out and setting: the result for `CC(C)(C)COC(=O)COC(=O)Cc1ccccc1Nc1c(Cl)cccc1Cl` [Beispiel 24] reads 33%.
For the molecule `CC(C(=O)OCC(C)(C)C)c1ccc(C(=O)c2cccs2)cc1` (centres unmarked) [Beispiel 15], in the assay with Pfotenoedem (5 mg/kg), the Hemmeffekt % came out at 37%.
`CC(C(=O)OCC(C)(C)CO)c1ccc(C(=O)c2cccs2)cc1` (centres unmarked) [Beispiel 9]: the Hemmeffekt % with Pfotenoedem (10 mg/kg) was determined as 34%; with Pfotenoedem (25 mg/kg), 43%.
As to `CC(C)(C)COC(=O)Cc1ccccc1Nc1c(Cl)cccc1Cl` [Beispiel 16], the Hemmeffekt % in the assay with Pfotenoedem (50 mg/kg) was 36%. Besides, in assay [1], the “% Hemmung 2h” value is listed as 19.2* %, the “% Hemmung 4h” value is 40.1*** % and the “% Hemmung 6h” value is recorded as 43.2*** %.
The molecule `O=C(O)Cc1cn(-c2ccccc2)nc1-c1ccc(Cl)cc1` [Lonazolac, 3-(4-Chlorphenyl)-1-phenyl-1H-pyrazol-4-essigsäure, reference compound] registered a Hemmeffekt % with Pfotenoedem (25 mg/kg) of 38%. Further, in assay [1], the “% Hemmung 2h” value is given as 0%, the “% Hemmung 4h” value came to 3.1% and the “% Hemmung 6h” value is 30.0*** %.
With `CC(C)Cc1ccc(C(C)C(=O)OCC(C)(C)C)cc1` (centres unmarked) [Beispiel 17], the Hemmeffekt % with Pfotenoedem (25 mg/kg) is recorded as 43%.
In the case of `CC(C(=O)OCC(C)(C)CO)c1cccc(C(=O)c2ccccc2)c1` (centres unmarked) [Beispiel 5], the Hemmeffekt % with Pfotenoedem (10 mg/kg) was 33%.
`CC(C)(CO)COC(=O)c1ccccc1Nc1cccc(C(F)(F)F)c1` [Beispiel 1, Flufenaminsäureneopentylglykolmonoester] showed a Hemmeffekt % with Pfotenoedem (25 mg/kg) of 38%. Further, in the assay on Pfotenoedem (50 mg/kg), the Hemmeffekt % was 55%. Besides, in assay [1], the “% Hemmung 2h” value amounted to 2.2%, the “% Hemmung 4h” value is 23.7*** % and the “% Hemmung 6h” value is 36.8*** %.
`CC(C(=O)OCC(=O)OCC(C)(C)C)c1ccc(-c2ccccc2)c(F)c1` (centres unmarked) [Beispiel 4] had a Hemmeffekt % in the assay on Pfotenoedem (25 mg/kg) of 33%.
`CC(C(=O)O)c1ccc(-c2ccccc2)c(F)c1` (centres unmarked) [Flurbiprofen, 2-(2-Fluor-4-biphenylyl)-propionsäure, reference compound] came in with a Hemmeffekt % in the assay on Pfotenoedem (50 mg/kg) of 40%.
In the case of `O=C(O)Cc1ccccc1Nc1c(Cl)cccc1Cl` [Diclofenac, 2-[(2,6-Dichlorphenyl)amino]-phenylessigsäure, reference compound], the Hemmeffekt % in the assay with Pfotenoedem (100 mg/kg) was found to be 38%. Also, in assay [1], the “% Hemmung 2h” value stood at 0%, the “% Hemmung 4h” value was 36.2*** % and the “% Hemmung 6h” value is listed as 37.6*** %.
The molecule `CC(C)(C)COC(=O)COC(=O)Cc1cn(-c2ccccc2)nc1-c1ccc(Cl)cc1` [Beispiel 22] yielded a Hemmeffekt % with Pfotenoedem (15 mg/kg) of 46%.
